# Measured values published in PMC10458859, “Stem Cell Bioengineering with Bioportides: Inhibition of Planarian Head Regeneration with Peptide Mimetics of Eyes Absent Proteins” (Pharmaceutics, 2023).
# [ ]: non-standard residue; d: D form. Aib = CC(C)(N)C(=O)O
# What was measured:
# [1] = Circular dichroism secondary structure analysis; type: physicochemical; details: CD; for difference in percentage α-helicity in the presence of lipid membranes: DMPC and DMPS vesicles, lipid:peptide 100 to 1
# Description: Secondary structure analyses of Djeya1 peptides were performed on a Jasco J-815 CD spectrometer (Jasco Ltd., Heckmondwike, UK). Peptides (0.01 mg mL^−^1) were dissolved in either 1 × phosphate buffered saline (PBS) at pH 7.4 or in a 2,2,2-tetrafluoroethanol (TFE) and 1 × PBS mixture (50.0% v/v). All buffers were prepared using ultra-pure water (resistivity 18 MΩ cm), PBS and TFE (Scientific Laboratory Supplies Ltd., Nottingham, UK). CD experiments were also performed at peptide:lipid ratios of 1:100, whilst 1,2-dimyristoyl-sn-glycero-3-phosphatidylcholine (DMPC) and 1,2-dimyristoyl-sn-glycero-3-phosphatidylserine (DMPS) (5 mg mL^−^1) (Avanti Polar Lipids, Alabaster, AL, USA) were dissolved separately in chloroform (HPLC grade, VWR International Ltd Lutterworth, UK) and dried under N2 gas. The lipid film was rehydrated using 1 × PBS, pH 7.5 for 1 h or until the solution was no longer turbid. The solution then underwent 5 cycles of freeze thaw before the lipid/peptide samples were prepared by the addition of peptide stock solution (final concentration 0.01 mg mL^−^1). Far UV CD spectra (180 nm to 260 nm) were recorded at 20 °C using 0.5 nm intervals, a bandwidth of 1 nm, a scan speed of 50 nm min^−1 and a 10 mm path-length cell. Ten accumulations were selected to average a single spectrum. Samples without peptide were prepared for background spectral subtraction. Data, baseline-subtracted and averaged CD, were analyzed using the Dichroweb server CDSSTR and SELCON3 reference dataset 3 [23, 24, 25]. To generate percentage structure averages, these analyses were repeated four times.
# [2] = tested on: decapitated S. mediterranea; experiment: Anterior pole regeneration and eye development assay; type: in vivo, Schmidtea mediterranea; details: for influence upon planarian head regeneration: 25 μM exogenous application to decapitated S. mediterranea, monitored over 8 days; for response to light: 25 μM in PAM after amputation, day 8; for response to light / regeneration of the anterior pole, including the eye spots: re-treated day 4; for regeneration of the anterior pole, including the eye spots: 25 μM in PAM immediately after transverse amputation, observed day 8, compared to PAM alone; for animals that achieved full regeneration / animals that had commenced the development of photoreceptors within the unpigmented blastema: n = 9; for animals that had commenced the development of photoreceptors within the unpigmented blastema: 25 μM, day 9 post amputation
# Description: Adult planaria, 4–6 mm in length, and selected for experimentation were starved 5 days prior to amputation. Transverse amputation of planarian heads, post-auricle and pre-pharynx, induced blastema formation in the trunk section, leading to eye regeneration and head remodeling.
# Post amputation, planaria were immediately treated with exogenously added Djeya1 analogues in 35 mm diameter × 10 mm depth culture dishes (VWR International Ltd., Lutterworth, UK) to a final volume of 4 mL PAM and maintained at 20 °C. PAM, containing Djeya1 analogues, was replenished 4 days post amputation. […]
# U373MG cells = experiment: Quantitative peptide uptake, U373MG; type: cell-based; details: TAMRA-labelled peptides 1, 2.5, 5 μM, 1 h, 37 °C, lysate fluorescence 544/590 nm, two experiments in triplicate
# Description: (§1) U373MG and U251 cells were maintained as above and then transferred to 6-well plates and grown to 80% confluence. Cells were washed and maintained in phenol red-free DMEM and subsequently treated with TAMRA-conjugated Djeya1 analogues at final concentrations of 1 μM, 2.5 μM, and 5 μM for 1 h in culture conditions as above. Cells were washed four times, detached with 300 μL of 1% (w/v) trypsin (without phenol red) at 37 °C, collected by centrifugation, and lysed in 300 μL 0.1 M NaOH for 2 h on ice. A total of 250 μL of each sample cell lysate was transferred to a black 96-well plate and analysed using a Thermo Fischer Scientific (Loughborough, UK) Fluoroskan Ascent FL fluorescence spectrophotometer (λAbs 544 nm/λEm 590 nm).
# U251 cells = experiment: Quantitative peptide uptake, U251; type: cell-based; details: 1 h, 37 °C; for rank order of uptake efficacy: U251, TAMRA-labelled peptides 1, 2.5, 5 μM, lysate fluorescence 544/590 nm, two experiments in triplicate
# Description: as §1
# [3] = 50% (v/v) TFE/PBS pH 7.4, peptide 0.01 mg mL-1, 20 °C
# [4] = 50% (v/v) TFE/PBS pH 7.4, peptide 0.01 mg mL-1, 20 °C, Dichroweb, analyses repeated four times
# [5] = DMPC vesicles, lipid:peptide 100 to 1, PBS, peptide 0.01 mg mL-1, 20 °C
# [6] = DMPS vesicles, lipid:peptide 100 to 1, PBS, peptide 0.01 mg mL-1, 20 °C
# [7] = PBS pH 7.4, peptide 0.01 mg mL-1, 20 °C, Dichroweb CDSSTR/SELCON3, analyses repeated four times
# [8] = PBS pH 7.4, peptide 0.01 mg mL-1, 20 °C, Dichroweb, analyses repeated four times
# [9] = 25 μM treatment, 30 days post amputation, in PAM
Substance,"Unordered [1, 3] [%]","ß-Strand [1, 3] [%]","ß-Turns [1, 3] [%]","α-helix [1, 4] [%]","Unordered [1, 5] [%]","ß-Turns [1, 5] [%]","α-helix [1, 5] [%]","Unordered [1, 6] [%]","ß-Strand [1, 6] [%]","ß-Turns [1, 6] [%]","α-helix [1, 6] [%]","α-helix [1, 7] [%]","Unordered [1, 8] [%]","ß-Strand [1, 8] [%]","ß-Turns [1, 8] [%]",influence upon planarian head regeneration [2],difference in percentage α-helicity in the presence of lipid membranes [1],"ß-Strand [1, 5] [%]",rank order of uptake efficacy (U373MG cells),rank order of uptake efficacy (U251 cells),other results
"H-RKLAFRYRRIKELYNSYR-NH2 [Djeya1, octadecapeptide CPP mimicking the α5 helix of the Eya domain of eyes absent proteins]",20.00 ± 1.41,27.55 ± 3.53,7.00 ± 0.00,45.50 ± 4.94,22.00 ± 0.00,8.00 ± 0.0,44.00 ± 1.53,20.00 ± 0.00,26.00 ± 1.28,8.00 ± 0.00,47.00 ± 1.24,43.00 ± 1.73,20.00 ± 1.73,30.33 ± 0.58,6.67 ± 0.58,inactive,,,,,
"H-RKLAFRYRRIKELYN[Aib]YR-NH2 (SMILES CC[C@H](C)[C@H](NC(=O)[C@H](CCCNC(=N)N)NC(=O)[C@H](CCCNC(=N)N)NC(=O)[C@H](Cc1ccc(O)cc1)NC(=O)[C@H](CCCNC(=N)N)NC(=O)[C@H](Cc1ccccc1)NC(=O)[C@H](C)NC(=O)[C@H](CC(C)C)NC(=O)[C@H](CCCCN)NC(=O)[C@@H](N)CCCNC(=N)N)C(=O)N[C@@H](CCCCN)C(=O)N[C@@H](CCC(=O)O)C(=O)N[C@@H](CC(C)C)C(=O)N[C@@H](Cc1ccc(O)cc1)C(=O)N[C@@H](CC(N)=O)C(=O)NC(C)(C)C(=O)N[C@@H](Cc1ccc(O)cc1)C(=O)N[C@@H](CCCNC(=N)N)C(N)=O) [[Aib^16]Djeya1, Aib-substituted Djeya1 analogue, position 16; bioportide]",19.50 ± 0.71,27.50 ± 0.71,7.00 ± 0.00,46.00 ± 1.41,22.00 ± 0.71,7.00 ± 0.71,42.00 ± 0.71,22.00 ± 0.71,30.00 ± 0.71,8.00 ± 0.71,42.00 ± 0.00,39.67 ± 4.04,21.00 ± 1.00,31.67 ± 2.87,7.33 ± 0.58,delay head regeneration,No difference,30.00 ± 0.71,[Aib^16]Djeya1 = [Aib^10]Djeya1 > [Aib^13]Djeya1,[Aib^13]Djeya1 > [Aib^16]Djeya1 > [Aib^10]Djeya1,"response to light [2]: unresponsive to light; regeneration of the anterior pole, including the eye spots [2]: absent; animals that achieved full regeneration [2, 9]: all; animals that had commenced the development of photoreceptors within the unpigmented blastema [2]: 67%"
"H-RKLAFRYRRIKE[Aib]YNSYR-NH2 (SMILES CC[C@H](C)[C@H](NC(=O)[C@H](CCCNC(=N)N)NC(=O)[C@H](CCCNC(=N)N)NC(=O)[C@H](Cc1ccc(O)cc1)NC(=O)[C@H](CCCNC(=N)N)NC(=O)[C@H](Cc1ccccc1)NC(=O)[C@H](C)NC(=O)[C@H](CC(C)C)NC(=O)[C@H](CCCCN)NC(=O)[C@@H](N)CCCNC(=N)N)C(=O)N[C@@H](CCCCN)C(=O)N[C@@H](CCC(=O)O)C(=O)NC(C)(C)C(=O)N[C@@H](Cc1ccc(O)cc1)C(=O)N[C@@H](CC(N)=O)C(=O)N[C@@H](CO)C(=O)N[C@@H](Cc1ccc(O)cc1)C(=O)N[C@@H](CCCNC(=N)N)C(N)=O) [[Aib^13]Djeya1, Aib-substituted Djeya1 analogue, position 13; bioportide]",22.33 ± 1.50,31.00 ± 2.08,7.33 ± 0.05,40.00 ± 2.64,22.00 ± 0.71,8.00 ± 0.71,42.00 ± 0.71,21.00 ± 0.71,30.00 ± 0.71,7.00 ± 0.71,42.00 ± 0.00,40.67 ± 1.52,22.33 ± 1.52,30.00 ± 1.00,7.00 ± 0.00,delay head regeneration,No difference,30.00 ± 0.71,[Aib^16]Djeya1 = [Aib^10]Djeya1 > [Aib^13]Djeya1,[Aib^13]Djeya1 > [Aib^16]Djeya1 > [Aib^10]Djeya1,"effect of 50% TFE/PBS on α-helical structure ([1]; 50% TFE/PBS (v/v) compared with PBS): did not enhance; response to light [2]: unresponsive to light; regeneration of the anterior pole, including the eye spots [2]: absent; animals that remained unregenerated and in stasis [2, 9]: 33%; animals that achieved full regeneration [2, 9]: 67%; animals that had commenced the development of photoreceptors within the unpigmented blastema [2]: 67%; uptake efficacy into U251 cells compared with U373MG cells (U251 cells; TAMRA-labelled peptide): increased uptake efficacy"
"H-RKLAFRYRR[Aib]KELYNSYR-NH2 (SMILES CC(C)C[C@H](NC(=O)[C@H](CCCCN)NC(=O)[C@@H](N)CCCNC(=N)N)C(=O)N[C@@H](C)C(=O)N[C@@H](Cc1ccccc1)C(=O)N[C@@H](CCCNC(=N)N)C(=O)N[C@@H](Cc1ccc(O)cc1)C(=O)N[C@@H](CCCNC(=N)N)C(=O)N[C@@H](CCCNC(=N)N)C(=O)NC(C)(C)C(=O)N[C@@H](CCCCN)C(=O)N[C@@H](CCC(=O)O)C(=O)N[C@@H](CC(C)C)C(=O)N[C@@H](Cc1ccc(O)cc1)C(=O)N[C@@H](CC(N)=O)C(=O)N[C@@H](CO)C(=O)N[C@@H](Cc1ccc(O)cc1)C(=O)N[C@@H](CCCNC(=N)N)C(N)=O) [[Aib^10]Djeya1, Aib-substituted Djeya1 analogue, position 10]",20.00 ± 0.00,21.00 ± 0.02,7.50 ± 0.71,51.50 ± 0.07,22.00 ± 1.41,7.00 ± 1.41,45.00 ± 1.58,16.00 ± 0.00,15.00 ± 0.00,5.00 ± 0.00,63.00 ± 2.82,41.33 ± 1.15,20.67 ± 0.58,31.33 ± 0.58,7.00 ± 0.00,inactive,,,[Aib^16]Djeya1 = [Aib^10]Djeya1 > [Aib^13]Djeya1,[Aib^13]Djeya1 > [Aib^16]Djeya1 > [Aib^10]Djeya1,
